Measurements from PubChem BioAssay AID248 (DTP/NCI, 2004).
Where “and” joins values, the source holds several entries; their conditions need not be identical. Equal values may be shown once. Inconclusive results and toxic doses are left out. Cut-off read from the data, not from the text of the source: active = T/C of 150% or more; inactive = T/C below 125%.

Test system: L1210 leukemia ip in BDF1 mice, survival T/C
Experiment: NCI In Vivo Anticancer Drug Screen. Data for tumor model L1210 Leukemia (intraperitoneal) in B6D2F1 (BDF1) mice
Details: endpoint: mean survival time, higher = longer survival
How it was run: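 Survival endpoint. Drug-treated group vs vehicle group, expressed as T divided by C. Tumor passaged by transplantation.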

[1] = dose: 50.0 mg/kg/injection, schedule: Q01DX001 (ip), vehicle: saline
[2] = dose: 100.0 mg/kg/injection, schedule: Q01DX001 (ip), vehicle: saline
[3] = dose: 200.0 mg/kg/injection, schedule: Q01DX001 (ip), vehicle: saline
[4] = dose: 100.0 mg/kg/injection, schedule: Q04DX003 (ip), vehicle: Klucel (hydroxypropylcellulose) (HPC)
[5] = dose: 400.0 mg/kg/injection, schedule: Q04DX003 (ip), vehicle: Klucel (hydroxypropylcellulose) (HPC)
[6] = dose: 200.0 mg/kg/injection, schedule: Q04DX003 (ip), vehicle: Klucel (hydroxypropylcellulose) (HPC)
[7] = dose: 400.0 mg/kg/injection, schedule: Q01DX001 (ip), vehicle: saline
[8] = dose: 100.0 mg/kg/injection, schedule: Q04DX003 (ip), vehicle: saline with Tween-80
[9] = dose: 100.0 mg/kg/injection, schedule: Q01DX009 (ip), vehicle: saline with Tween-80
[10] = dose: 200.0 mg/kg/injection, schedule: Q01DX009 (ip), vehicle: saline with Tween-80
[11] = dose: 400.0 mg/kg/injection, schedule: Q01DX009 (ip), vehicle: saline with Tween-80
[12] = dose: 200.0 mg/kg/injection, schedule: Q04DX002 (ip), vehicle: saline with Tween-80
[13] = dose: 400.0 mg/kg/injection, schedule: Q04DX002 (ip), vehicle: saline with Tween-80
[14] = dose: 200.0 mg/kg/injection, schedule: Q04DX003 (ip), vehicle: saline with Tween-80
[15] = dose: 400.0 mg/kg/injection, schedule: Q04DX003 (ip), vehicle: saline with Tween-80

Measured: T/C

CC(=O)C(C)(c1ccccc1)N(Cc1ccccc1)C(=O)c1ccccc1 (stereo not given)
inactive: dose: 100.0 mg/kg/injection, schedule: Q04DX003 (ip), vehicle: other 93 % of control | dose: 200.0 mg/kg/injection, schedule: Q04DX003 (ip), vehicle: other 108 % of control | dose: 400.0 mg/kg/injection, schedule: Q04DX003 (ip), vehicle: other 92 % of control

CC(=O)NC1C(NC(=O)CC(NC(=O)OCc2ccccc2)C(=O)O)OC(COC(C)=O)C(OC(C)=O)C1OC(C)=O (stereo not given)
inactive: dose: 50.0 mg/kg/injection, schedule: Q04DX002 (ip), vehicle: saline 91 % of control | dose: 100.0 mg/kg/injection, schedule: Q04DX002 (ip), vehicle: saline 94 % of control | dose: 200.0 mg/kg/injection, schedule: Q04DX002 (ip), vehicle: saline 100 % of control

CC(=O)c1ccccc1OB(F)F
inactive: [1] 98 % of control | [2] 98 % of control | [3] 106 % of control

Nc1ncnc(N)c1NC(=O)c1cc(Cl)cc(Cl)c1
inactive: [4] 91 % of control | [5] 86 % of control

CCOC(=O)Nc1cccc2ccccc12
inactive: [4] 101 % of control | [6] 97 % of control | [5] 98 % of control

NC1CCCCCCC1O (stereo not given)
inactive: dose: 5.0 mg/kg/injection, schedule: Q01DX009 (ip), vehicle: saline with Tween-80 105 % of control | dose: 10.0 mg/kg/injection, schedule: Q01DX009 (ip), vehicle: saline with Tween-80 94 % of control | dose: 20.0 mg/kg/injection, schedule: Q01DX009 (ip), vehicle: saline with Tween-80 100 % of control

CC1([N+](=O)[O-])COP(=O)(O)OC1 (stereo not given)
inactive: [3] 90 % of control | [7] 97 % of control

CCCCCC(=O)N1CCCCC1CC (stereo not given)
inactive: dose: 100.0 mg/kg/injection, schedule: Q04DX002 (ip), vehicle: Klucel (hydroxypropylcellulose) (HPC) 92 % of control | dose: 200.0 mg/kg/injection, schedule: Q04DX002 (ip), vehicle: Klucel (hydroxypropylcellulose) (HPC) 92 % of control

O=C(Nc1cccc(F)c1)Nc1cc(Cl)ccc1Cl
inactive: dose: 100.0 mg/kg/injection, schedule: Q01DX009 (ip), vehicle: Klucel (hydroxypropylcellulose) (HPC) 96 % of control and 86 % of control | dose: 200.0 mg/kg/injection, schedule: Q01DX009 (ip), vehicle: Klucel (hydroxypropylcellulose) (HPC) 102 % of control | dose: 400.0 mg/kg/injection, schedule: Q01DX009 (ip), vehicle: Klucel (hydroxypropylcellulose) (HPC) 95 % of control and 92 % of control

COc1cc(CNC2CCCCC2)ccc1O
inactive: dose: 75.0 mg/kg/injection, schedule: Q01DX001 (ip), vehicle: saline 97 % of control | dose: 150.0 mg/kg/injection, schedule: Q01DX001 (ip), vehicle: saline 110 % of control

COc1ccc(N=NN(C)C)cc1
inactive: dose: 6.25 mg/kg/injection, schedule: Q01DX009 (ip), vehicle: saline with Tween-80 98 % of control | dose: 12.5 mg/kg/injection, schedule: Q01DX009 (ip), vehicle: saline with Tween-80 100 % of control | dose: 12.5 mg/kg/injection, schedule: Q04DX003 (ip), vehicle: saline with Tween-80 107 % of control | dose: 18.75 mg/kg/injection, schedule: Q01DX001 (ip), vehicle: saline with Tween-80 107 % of control | dose: 25.0 mg/kg/injection, schedule: Q01DX009 (ip), vehicle: saline with Tween-80 100 % of control | dose: 25.0 mg/kg/injection, schedule: Q04DX003 (ip), vehicle: saline with Tween-80 108 % of control | dose: 37.5 mg/kg/injection, schedule: Q01DX001 (ip), vehicle: saline with Tween-80 108 % of control | dose: 50.0 mg/kg/injection, schedule: Q01DX009 (ip), vehicle: saline with Tween-80 104 % of control | dose: 50.0 mg/kg/injection, schedule: Q04DX003 (ip), vehicle: saline with Tween-80 115 % of control | [8] 108 % of control

CN(C)C=Nc1ccc([N+](=O)[O-])cc1
inactive: [1] 89 % of control | [2] 89 % of control | [9] 96 % of control | [3] 96 % of control | [10] 89 % of control | [7] 91 % of control | [11] 90 % of control

C[n+]1c(-c2cc(C(F)(F)F)cc(C(F)(F)F)c2)c2cc(N)ccc2c2ccc(N)cc21
inactive: dose: 100.0 mg/kg/injection, schedule: Q01DX005 (ip), vehicle: water 97 % of control

CCOC(=O)c1cc(N(CCOS(C)(=O)=O)CCOS(C)(=O)=O)ccc1N
inactive: dose: 1.8 mg/kg/injection, schedule: Q01DX015 (ip), vehicle: saline 95 % of control | dose: 2.0 mg/kg/injection, schedule: Q01DX015 (ip), vehicle: saline 89 % of control | dose: 3.0 mg/kg/injection, schedule: Q01DX015 (ip), vehicle: saline 106 % of control | dose: 5.0 mg/kg/injection, schedule: Q01DX001 (ip), vehicle: saline 116 % of control | dose: 7.0 mg/kg/injection, schedule: Q01DX015 (ip), vehicle: saline 90 % of control

CC1(c2ccncc2)OCCO1
inactive: [2] 97 % of control | [3] 101 % of control

CN(C)c1ccc(/C=C/c2nc3ccc(Cl)cc3[nH]2)cc1
inactive: [4] 96 % of control | [6] 103 % of control | [5] 96 % of control

Cc1cc(C)c(OS(=O)(=O)c2ccc([N+](=O)[O-])cc2)c(C)c1
inactive: [10] 87 % of control | [11] 89 % of control

CC(=O)OCC1OCOC2C1OC1OCOC12 (stereo not given)
inactive: dose: 100.0 mg/kg/injection, schedule: Q04DX002 (ip), vehicle: saline with Tween-80 104 % of control | [12] 104 % of control | [13] 118 % of control

C=C1OC(=O)OC1(C)CC(OC)OC (stereo not given)
inactive: [9] 101 % of control | [8] 94 % of control | [10] 95 % of control | [14] 92 % of control | [11] 98 % of control | [15] 92 % of control

CCOc1ccc(OCC)c(NC(=O)Nc2ccccc2Cl)c1
inactive: [12] 90 % of control | [13] 87 % of control

CN(C)c1ccc(N=C(C#N)C(=O)c2ccccc2)cc1
inactive: [8] 95 % of control | [14] 95 % of control | [15] 102 % of control
